ChEMBL document CHEMBL1649353, “Spectroscopic characterization and antiproliferative activity on HepG2 human hepatoblastoma cells of flavonoid C-glycosides from Petrorhagia velutina” (2010)
Activity calls are given as the source filed them. The rule behind the calls is not given here.

Key:
[1] = tested on: HepG2; assay: Antiproliferative activity against human HepG2 cells at 25 uM after 48 hrs by MTT assay; type: functional
[2] = tested on: HepG2; assay: Antiproliferative activity against human HepG2 cells at 6.25 to 50 uM after 48 hrs by MTT assay; type: functional, cell-based
[3] = tested on: HepG2; assay: Antiproliferative activity against human HepG2 cells at 6.25 to 50 uM after 24 hrs by MTT assay; type: functional, cell-based
[4] = tested on: HepG2; assay: Antiproliferative activity against human HepG2 cells at 6.25 uM after 24 hrs by MTT assay; type: functional
[5] = tested on: HepG2; assay: Antiproliferative activity against human HepG2 cells at 6.25 uM after 48 hrs by MTT assay; type: functional
[6] = tested on: HepG2; assay: Antiproliferative activity against human HepG2 cells at 12.5 uM after 48 hrs by MTT assay; type: functional
[7] = tested on: HepG2; assay: Antiproliferative activity against human HepG2 cells at 25 uM after 24 hrs by MTT assay; type: functional

Compound: C[C@@H]1O[C@@H](O[C@@H]2[C@@H](O)[C@H](O)[C@@H](CO)O[C@H]2c2c(O)cc3oc(-c4ccc(O)c(O)c4)cc(=O)c3c2O)[C@H](O)[C@H](O)[C@H]1O
- Activity [1]: 74.9%

Compound: C[C@@H]1O[C@@H](O[C@@H]2[C@@H](O)[C@@H](O)CO[C@H]2c2c(O)cc3oc(-c4ccc(O)c(O)c4)cc(=O)c3c2O)[C@H](O)[C@H](O)[C@H]1O
- Activity [2]: Active

Compound: O=C1C[C@@H](c2ccc(O)cc2)Oc2c1c(O)cc(O[C@@H]1O[C@H](CO)[C@@H](O)[C@H](O)[C@H]1O)c2[C@@H]1OC[C@H](O)[C@H](O)[C@H]1O
- Activity [3]: inactive

Compound: O=c1cc(-c2ccc(O)c(O)c2)oc2cc(O)c([C@@H]3O[C@H](CO)[C@@H](O)[C@H](O)[C@H]3O)c(O)c12 [ISOORIENTIN]
- Activity [4]: 19.6%
- Activity [5]: 84%
- Activity [6]: 92%
- Activity [7]: 26.1%
